Measurements as given in article PMC11678782, “The Antioxidant and Anti-Inflammatory Activities of the Methanolic Extract, Fractions, and Isolated Compounds from Eriosema montanum Baker f. (Fabaceae)” (Molecules, 2024).
Values after ≈ are worked out from the molar mass of the structure shown.

Columns and labels:
[1] = DPPH radical scavenging assay; settings: 30 min, 517 nm
Procedure: (§1) Three in vitro antioxidant assays, namely, 2,2′-azinobis-(3-ethylbenzothiazoline-6-sulfonic acid (ABTS), 2,2′-diphenyl-1-picrylhydrazyl (DPPH), and ferric ion reducing antioxidant power (FRAP), were used to determine the antioxidant activity according to methods previously reported. Ascorbic acid (0 to 200 μg/mL) was used as positive control in these experiments, and Formula (1) below allowed us to evaluate the percentage of radical scavenging capacity. The inhibitory concentration (IC50) values were evaluated by plotting a nonlinear graph of percentage radical scavenging capacity versus logarithm of tested concentrations. Scavenging capacity (%) = [(A0 − A1)/A0] × 100(1) where A0 is absorbance of negative control, and A1 is absorbance of extract with ABTS^•+ radical cation.
To be able to determine the DPPH^• scavenging capacity of EMME, we performed a serial dilution of 40 μL of the sample (1 mg/mL) with methanol on a 96-well microtiter plate, with 160 μL of solution of DPPH^• thereafter (25 μg/mL). The incubation at 25 °C in the dark was performed after 30 min, with the absorbance values measured at 517 nm on a SpectraMax iD3 multi-mode microplate against a blank (extract plus methanol without DPPH^•). […]. Methanol with DPPH^• served as the negative control. Using Formula (1), the DPPH scavenging capability was calculated at the measured concentrations above, and as previously enumerated, the IC50 values were also calculated, as indicated in the previously described procedure.
(§2) The IC50 values were calculated for each biological experiment using the nonlinear regression curve of the % inhibitory activity versus the logarithm (log10) of the various tested concentrations using GraphPad Prism 6.0 software (GraphPad Software, Inc., San Diego, CA, USA). The data are shown as mean ⁱ SEM (standard error of the mean) values, and all biological experiments were conducted in triplicate (n = 3). The statistical analysis was conducted using GraphPad Prism 6.0 software (GraphPad Software, Inc., San Diego, CA, USA). One-way analysis of variance (ANOVA) was used to compare the data across the tested samples and/or controls, and Student–Newman–Keuls or Dunnett’s tests were then performed. A p-value of less than 0.05 indicated a significant difference in the results.

[2] = Ferric reducing antioxidant power (FRAP) assay; settings: relative to 200 µg/mL gallic acid, 700 nm
Procedure: as §1
The generally used and almost standard method for performing the FRAP test is that developed by Benzie and Strain [15]. Indeed, the antioxidant power is determined in a colorimetric reaction linked to redox in which an intense blue-colored ferroustripyridyltriazine (Fe^2+-TPTZ) complex is obtained via reduction at a low pH of ferrictripyridyltriazine (Fe^3+-TPTZ). The incubation of a quantity of 50 μL of EMME (1.56 to 200 μg/mL) or 200 μg/mL of gallic acid (Merck, Lethabong, South Africa) on a 96-well plate was carried out with 50 μL of 1% potassium ferricyanide (prepared in 0.2 M of sodium phosphate buffer, pH 6.6) for 30 min at 50 °C. Then, 50 μL of 10% trichloroacetic acid (TCA), 40 μL of distilled water, and 10 μL of 0.1% ferric chloride were added, respectively. The absorbance values were recorded on a blank (extract plus sodium phosphate buffer) at 700 nm on a SpectraMax iD3 multi-mode microplate reader (Molecular Devices, San Jose, CA, USA); the FRAP activity was indicated as inhibition percentage of 200 μg/mL of gallic acid.
as §2

[3] = target: T1, soybeans 15-LOX (Glycine max, UniProt P08170); experiment: 15-lipoxygenase enzyme inhibitory assay (FOX); type: biochemical, soybean; settings: linoleic acid substrate, FOX reagent, 560 nm; read-out: IC50 15-LOX (converted)
T1 construct: purchased Merck, Darmstadt, Germany
T1 sequence (P08170 1-839): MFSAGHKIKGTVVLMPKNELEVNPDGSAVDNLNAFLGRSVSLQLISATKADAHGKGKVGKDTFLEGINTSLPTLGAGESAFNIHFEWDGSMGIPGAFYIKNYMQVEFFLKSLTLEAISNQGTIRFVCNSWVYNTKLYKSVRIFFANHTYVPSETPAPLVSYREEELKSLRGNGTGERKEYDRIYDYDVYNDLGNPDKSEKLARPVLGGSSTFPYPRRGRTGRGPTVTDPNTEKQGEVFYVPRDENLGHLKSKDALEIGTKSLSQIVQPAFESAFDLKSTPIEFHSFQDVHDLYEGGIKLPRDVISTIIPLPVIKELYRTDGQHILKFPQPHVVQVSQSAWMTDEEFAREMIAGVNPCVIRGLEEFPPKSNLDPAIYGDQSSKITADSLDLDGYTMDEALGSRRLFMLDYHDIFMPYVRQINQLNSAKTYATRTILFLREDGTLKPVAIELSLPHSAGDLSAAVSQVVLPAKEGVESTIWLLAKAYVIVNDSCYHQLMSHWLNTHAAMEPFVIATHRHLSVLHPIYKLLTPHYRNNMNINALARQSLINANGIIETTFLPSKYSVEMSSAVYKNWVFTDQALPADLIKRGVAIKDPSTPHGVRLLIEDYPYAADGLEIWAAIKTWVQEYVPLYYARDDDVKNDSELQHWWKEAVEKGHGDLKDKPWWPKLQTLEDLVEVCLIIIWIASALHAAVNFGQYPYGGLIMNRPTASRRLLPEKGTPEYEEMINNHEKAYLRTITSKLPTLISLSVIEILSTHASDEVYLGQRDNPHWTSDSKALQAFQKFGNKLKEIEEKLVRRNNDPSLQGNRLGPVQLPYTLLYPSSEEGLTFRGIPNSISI
Procedure: The method developed by Pinto et al. was used to determine the effect of the tested samples on 15-LOX inhibitory activity, with slight modifications to the 96-well microtitre plate format. Using 20 µL of tested samples at varying concentrations (3.90 to 500 µg/mL), the soybeans 15-LOX (Merck, Darmstadt, Germany) (40 µL, 200 UI/mL) were incubated at 25 °C for 5 min. The plate was then incubated at 25 °C for 20 min in the dark; after, 40 µL of linoleic acid (final concentration, 140 μM) produced in Tris-HCl buffer (50 mM, pH 7.4) was added. A total of 100 µL of the FOX reagent—sulfuric acid (30 mM), xylenol orange (100 μM), and ferrous II) sulfate (100 μM) mixed in methanol/water (9:1)—was added to terminate the test. A SpectraMax iD3 multi-mode microplate reader (Molecular Devices, San Jose, CA, USA) was used to measure the absorbance at 560 nm following 30 min of incubation at 25 °C in the dark. Gallic acid (0.78 to 100 µg/mL) was employed as the usual inhibitor of 15-LOX, while DMSO at 5% (v/v) served as the negative control. With the exception of adding the substrate after the FOX reagent, the blanks were prepared exactly like the tested samples. Formula (2) below was used to compute the 15-LOX inhibitory activity. 15 LOX inhibitory activity (%) = 100 − [(A0 − A1) − (A2 − A1)] × 100(2) where A0 is absorbance of test samples, A1 is absorbance of blank, and A2 is absorbance of negative control (DMSO 5%).
as §2

| Compound | IC50 DPPH [1] [µg/mL] | IC50 FRAP [2] [µg/mL] | IC50 [3] [µM] | IC50 DPPH ([1]; listed as genistin) [µg/mL] |
| --- | --- | --- | --- | --- |
| CCCCCCCCCCCCCCCC [Compound 1, n-hexadecane] | >100 | >200 | > 883 | – |
| CCCCCCCCCCCCCCCCCCCCCCCO [Compound 3, tricosan-1-ol] | >100 | >200 | > 587 | – |
| O=c1c2c(O)cc(O)cc2oc2oc3cc(O)ccc3c12 [Compound 4, lupinalbin A] | >100 | >200 | > 704 | – |
| O=c1c(-c2ccc(O)cc2)coc2cc(O[C@@H]3O[C@H](CO)[C@@H](O)[C@H](O)[C@H]3O)cc(O)c12 [Compound 5, genistin] | 99.89 ± 1.26 (≈ 231 µM) | >200 | 414 | 91.02 (≈ 211 µM) |
| CO[C@H]1[C@H](O)[C@@H](O)[C@@H](O)[C@H](O)[C@@H]1O [Compound 6, D-pinitol] | >100 | >200 | > 1030 | – |
| CC[C@H](/C=C/[C@@H](C)[C@H]1CC[C@H]2[C@@H]3CC=C4C[C@@H](O[C@@H]5O[C@H](CO)[C@@H](O)[C@H](O)[C@H]5O)CC[C@]4(C)[C@H]3CC[C@]12C)C(C)C [Compound 7, stigmasterol glucoside] | >100 | >200 | > 348 | – |
